Measured values published in patent publication US20020115642A1, “Beta-lactam antibiotics” (priority 2000, published 2002).
Values after ≈ are worked out from the molar mass of the structure shown. Read-outs that look alike come from different tables or passages of the source.

Key:
[1] = test system: E. aerogenes; assay: Susceptibility testing (MIC, modified NCCLS method); format: cell-based, Enterobacter aerogenes
Description: (§1) The NCCLS (National Committee for Clinical Laboratory Standards) method to determine MIC's of antimicrobial compounds was modified for high-throughput screening. All stocks of tested compounds were prepared in either water or in dimethylsulfoxide (DMSO), depending on the solubility. […] Briefly 20 2-fold serial dilutions of testing compounds from the highest concentration were made in a 384-well microtiter plate. Each well was inoculated with testing bacteria in broth to a final concentration of approximately 1-1.5×10^6 cells/ml. Bacterial growth was determined by the increase of optical density at 600 nm using a microplate reader (Tecan SpectraFluor Plus).

[2] = test system: E. cloacae; assay: as above; format: cell-based, Enterobacter cloacae
Description: as §1

[3] = test system: P. aeruginosa; assay: as above; format: cell-based, Pseudomonas aeruginosa
Description: as §1

[4] = test system: E. coli N; assay: as above; format: cell-based, Escherichia coli; settings: E. coli (N)
Description: as §1

[5] = test system: E. coli/TEM-1; assay: as above; format: cell-based, Escherichia coli; settings: E. coli/Tem-1
Description: as §1

[6] = test system: K. pneumoniae; assay: as above; format: cell-based, Klebsiella pneumoniae
Description: as §1

[7] = test system: Staphylococcus aureus; assay: as above; format: cell-based
Description: as §1

[8] = test system: E. faecalis; assay: as above; format: cell-based, Enterococcus faecalis
Description: as §1

[9] = test system: E. coli N; assay: Inhibition of bacterial growth (IC50, OD600); format: cell-based
Description: Compounds of the invention were tested for their ability to inhibit the growth of β-lactam sensitive and resistant bacteria by contacting samples of such cells with various dilutions of the compositions, incubating the cells at 37° C. in the presence of these compositions and then measuring the number of viable cells present in each sample.
Two compounds of the invention were tested, Compound (9) and Compound (1l). Incubation of bacterial cells was performed for two time periods, 10 hours and 20 hours. Four E. coli strains were used for the test. These strains were all derived from the strain NovaBlue (NovaGen Inc., Madison, Wis.). E. coli N is a normal, β-lactam sensitive strain. E coli R(Tem1) is a β-lactam resistant strain with a β-lactamase gene on a plasmid. E. coli C(Tem4O-15) is a β-lactam resistant strain with a β-lactam inhibitor resistant β-lactamase gene, and E. coli C(Tem3 1-27) is β-lactam resistant strain with an alternative β-lactam inhibitor resistant β-lactamase gene.
The various E. coli strains were each treated with dilutions of the compounds of the invention. […] The number of viable cells at each time point was determined by measuring the OD600 of each cell sample.
After measuring the number of viable cells present, the IC50 for each sample was determined. […] In addition, both compounds were effective at inhibiting the growth of both antibiotic sensitive and resistant bacterial cells.

Structure (SMILES) | MIC ([1]; E. aerogenes ATCC 35028) [µg/mL] | MIC ([2]; E. cloacae ATCC 23355) [µg/mL] | MIC ([3]; P. aeruginosa ATCC 21726) [µg/mL] | MIC ([3]; P. aeruginosa ATCC 29872) [µg/mL] | MIC [4] [µg/mL] | MIC [5] [µg/mL] | MIC ([6]; K. pneumoniae ATCC 51503) [µg/mL] | MIC ([7]; S. aureus ATCC 11632) [ng/mL] | MIC ([7]; S. aureus ATCC 33594) [ng/mL] | MIC ([7]; S. aureus ATCC 700260) [ng/mL] | MIC ([7]; S. aureus ATCC 700699) [ng/mL] | MIC ([8]; E. faecalis ATCC 49757) [µg/mL] | MIC ([8]; E. faecalis ATCC 700802) [µg/mL] | further results
O=C(Cn1cnnn1)Nc1ncc(CC(=O)NC2C(=O)N3C(C(=O)O)=C(COc4cc(Cl)ccc4Oc4ccc(Cl)cc4Cl)CS[C@H]23)s1 (stereo partly drawn) [Compound 43] | 32 (≈ 42.6 µM) | 32 (≈ 42.6 µM) | >32 | >32 | 2 (≈ 2.66 µM) | 0.25 (≈ 0.332 µM) | 32 (≈ 42.6 µM) | 32000 (≈ 42.6 µM) | 63 (≈ 0.0838 µM) | 8000 (≈ 10.6 µM) | 32000 (≈ 42.6 µM) | 32 (≈ 42.6 µM) | 32 (≈ 42.6 µM) | MIC ([6]; K. pneumoniae ATCC 700721): 4 µg/mL (≈ 5.32 µM); MIC ([7]; S. aureus ATCC 33591): 125 ng/mL (≈ 0.166 µM)
CC1(C)S[C@@H]2[C@H](NC(=O)[C@H](N)c3ccccc3)C(=O)N2[C@H]1C(=O)O [Ampicillin, ampicillin, reference compound] | – | – | – | – | – | – | – | – | – | – | – | – | – | MIC range ([1]; E. aerogenes (5)): 61 to 7813 µg/mL; MIC ([1]; Klebsiella aerogenes, E. aerogenes (5), read-out: GM* MIC (geometric mean)): 488 µg/mL (≈ 1400 µM); MIC range ([2]; E. cloacae (1)): 31 µg/mL (≈ 88.7 µM); MIC ([2]; Enterobacter cloacae, E. cloacae (1), read-out: GM* MIC (geometric mean)): 31 µg/mL (≈ 88.7 µM); MIC ([6]; Klebsiella pneumoniae, K. pneumoniae (5), read-out: GM* MIC (geometric mean)): 27200 µg/mL (≈ 77800 µM); IC50 ([9]; Escherichia coli, 10 h, read-out: IC50 10 hours, Cell N, 10 hours, 37° C.): 9.71 µM; IC50 ([9]; Escherichia coli, 20 h, read-out: IC50 20 hours, Cell N, 20 hours): 7.47 µM; IC50 ([9]; read-out: IC50 10 hours, Cell N, 10 hours, 37° C.): 7.88 µM
NC(C(=O)NC1C(=O)N2C(C(=O)O)=C(COc3cc(Cl)ccc3Oc3ccc(Cl)cc3Cl)CSC12)c1ccccc1 (stereo not drawn) [Compound 38, 3-(2-(2,4-Dichlorophenoxy)-5-chlorophenoxy)methyl-7-(1-phenyl-2-aminoacetamido)-3-cephem-4-carboxylic acid] | 1.98 (≈ 3.12 µM) | 1.98 (≈ 3.12 µM) | >15.9 | >15.9 | 0.031 (≈ 0.0488 µM) | 0.015 (≈ 0.0236 µM) | 1.98 (≈ 3.12 µM) | 62 (≈ 0.0976 µM) | 62 (≈ 0.0976 µM) | 0.015 (≈ 2.36e-05 µM) | 0.015 (≈ 2.36e-05 µM) | 15.9 (≈ 25 µM) | 15.9 (≈ 25 µM) | –
